For three compounds, residual activity, inhibition and percent of control results are on record in ChEMBL document CHEMBL5696442, “Discovery of type II inhibitors of TGFβ-activated kinase 1 (TAK1) and mitogen-activated protein kinase kinase kinase kinase 2 (MAP4K2)” (J Med Chem, 2015).

As a reminder, the residual activity is the signal under treatment as a percentage of the control signal. Broadly, the inhibition is the drop in the measured response relative to a control, in per cent.

For test [1], the target named is Casein kinase II subunit alpha' (Homo sapiens) (UniProt P19784). Nature of the test: Inhibition of CSNK2A2 (unknown origin) at 1 uM by Ambit Kinomescan binding assay relative to control; values are per cent of control.
For test [2], the target named is Mitogen-activated protein kinase kinase kinase kinase 3 (Homo sapiens) (UniProt Q8IVH8). The test can be described thus: Inhibition of MAP4K3 (unknown origin) at 1 uM by Ambit Kinomescan binding assay relative to control.
Test [3] concerns the target cGMP-dependent protein kinase 2 (Homo sapiens) (UniProt Q13237). The test can be described thus: Inhibition of PRKG2 (unknown origin) at 1 uM by Ambit Kinomescan binding assay relative to control.
Test [4] concerns the target Cyclin-dependent kinase 4/cyclin D1 (Homo sapiens) (UniProt P11802+P24385). Nature of the test: Inhibition of CDK4/cyclinD1 (unknown origin) at 1 uM by Ambit Kinomescan binding assay relative to control; values are per cent of control.
For test [5], the target named is Non-receptor tyrosine-protein kinase TYK2 (Homo sapiens) (UniProt P29597). Nature of the test: Inhibition of TYK2 JH1catalytic domain (unknown origin) at 1 uM by Ambit Kinomescan binding assay relative to control.
Test [6] deals with Mitogen-activated protein kinase kinase kinase 4 (Homo sapiens) (UniProt Q9Y6R4). Nature of the test: Inhibition of MAP3K4 K2 labeling site in human Huh-7 cells at 10 uM by KiNativ Profiling analysis relative to control. In kind it is cell-based.
The target in test [7] is T1, Serine/threonine-protein kinase ULK3 (Homo sapiens) (UniProt Q6PHR2).
T1 sequence (whole entry): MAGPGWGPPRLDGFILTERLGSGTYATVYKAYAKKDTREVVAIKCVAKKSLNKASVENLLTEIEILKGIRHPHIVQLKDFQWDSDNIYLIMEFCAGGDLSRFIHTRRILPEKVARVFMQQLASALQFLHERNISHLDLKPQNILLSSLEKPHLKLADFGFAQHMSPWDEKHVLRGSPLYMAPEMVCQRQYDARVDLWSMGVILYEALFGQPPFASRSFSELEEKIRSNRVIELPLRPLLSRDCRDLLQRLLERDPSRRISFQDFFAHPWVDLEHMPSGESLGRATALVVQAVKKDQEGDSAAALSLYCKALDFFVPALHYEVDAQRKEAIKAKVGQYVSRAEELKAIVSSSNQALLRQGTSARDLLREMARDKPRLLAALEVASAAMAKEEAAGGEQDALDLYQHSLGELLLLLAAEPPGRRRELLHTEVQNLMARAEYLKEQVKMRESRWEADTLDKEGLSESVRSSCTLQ
Nature of the test: Inhibition of ULK3 K1 labeling site in human Huh-7 cells at 10 uM by KiNativ Profiling analysis relative to control. Format: cell-based.

Test [8] has as its target Serine/threonine-protein kinase 10 (Homo sapiens) (UniProt O94804). Nature of the test: Inhibition of LOK Lys1 labeling site in human A-375 cells at 5 uM by KiNativ Profiling analysis relative to control. Format: cell-based.
The target of test [9] is T2, Mitogen-activated protein kinase kinase kinase kinase 2 (Homo sapiens) (UniProt Q12851).
T2 sequence (whole entry): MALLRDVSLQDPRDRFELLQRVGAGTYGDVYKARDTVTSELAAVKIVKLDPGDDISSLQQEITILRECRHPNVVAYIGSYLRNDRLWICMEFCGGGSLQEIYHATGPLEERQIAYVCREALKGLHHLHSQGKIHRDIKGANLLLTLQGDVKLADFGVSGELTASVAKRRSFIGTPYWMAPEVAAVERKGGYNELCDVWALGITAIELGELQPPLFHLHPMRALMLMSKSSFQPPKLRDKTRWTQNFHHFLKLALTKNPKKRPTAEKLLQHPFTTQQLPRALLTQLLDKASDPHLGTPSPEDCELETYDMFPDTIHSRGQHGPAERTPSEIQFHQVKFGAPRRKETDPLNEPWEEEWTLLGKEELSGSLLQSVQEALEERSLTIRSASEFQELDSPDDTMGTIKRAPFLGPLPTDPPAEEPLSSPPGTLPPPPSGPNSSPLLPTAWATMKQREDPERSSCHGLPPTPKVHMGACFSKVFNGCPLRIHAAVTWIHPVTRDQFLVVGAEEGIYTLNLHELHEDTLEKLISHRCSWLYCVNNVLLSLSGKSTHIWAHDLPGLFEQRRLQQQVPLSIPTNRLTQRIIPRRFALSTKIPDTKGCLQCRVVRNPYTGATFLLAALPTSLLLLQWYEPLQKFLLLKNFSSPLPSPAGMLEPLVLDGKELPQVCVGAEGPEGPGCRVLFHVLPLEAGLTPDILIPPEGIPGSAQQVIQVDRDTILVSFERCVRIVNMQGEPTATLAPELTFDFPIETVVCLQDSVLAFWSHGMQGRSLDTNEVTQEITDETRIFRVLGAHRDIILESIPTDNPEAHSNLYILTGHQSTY
The test can be described thus: Inhibition of MAP4K2 (GCK) Lys1 labeling site in human A-375 cells at 0.5 uM by KiNativ Profiling analysis relative to control. Format: cell-based.

Test [10] deals with Calcium/calmodulin-dependent protein kinase type II subunit gamma (Homo sapiens) (UniProt Q13555). The test can be described thus: Inhibition of CAMK2g K1 labeling site harbouring KTSTQEYAAKIINTK in human Huh-7 cells at 1 uM by KiNativ Profiling analysis relative to control. In kind it is cell-based.
Test [11] concerns Proto-oncogene tyrosine-protein kinase receptor Ret (Homo sapiens), P07949 [V804L]. The test can be described thus: Inhibition of RET V804L mutant (unknown origin) at 10 uM by Ambit Kinomescan binding assay relative to control; values are per cent of control.
The target in test [12] is Serine/threonine-protein kinase SMG1 (Homo sapiens) (UniProt Q96Q15). Nature of the test: Inhibition of SMG1 ATP labeling site in human Huh-7 cells at 1 uM by KiNativ Profiling analysis relative to control. In kind it is cell-based.
The target of test [13] is T3, Dual specificity mitogen-activated protein kinase kinase 6 (Homo sapiens) (UniProt P52564).
T3 sequence (whole entry): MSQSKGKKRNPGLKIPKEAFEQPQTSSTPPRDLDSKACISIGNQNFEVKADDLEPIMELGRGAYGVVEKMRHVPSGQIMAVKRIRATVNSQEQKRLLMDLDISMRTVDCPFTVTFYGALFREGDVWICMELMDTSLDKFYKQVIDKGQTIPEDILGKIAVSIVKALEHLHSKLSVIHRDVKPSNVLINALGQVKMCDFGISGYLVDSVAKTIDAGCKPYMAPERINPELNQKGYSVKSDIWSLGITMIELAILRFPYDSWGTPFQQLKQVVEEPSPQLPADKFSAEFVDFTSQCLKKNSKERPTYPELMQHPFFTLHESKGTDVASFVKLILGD
The test can be described thus: Inhibition of MAP2K6 K2 labeling site in human Huh-7 cells at 1 uM by KiNativ Profiling analysis relative to control. Format: cell-based.

Test [14] has as its target MAP/microtubule affinity-regulating kinase 4 (Homo sapiens) (UniProt Q96L34). Nature of the test: Inhibition of MARK4 (unknown origin) at 10 uM by Ambit Kinomescan binding assay.
Test [15] concerns the target Mitogen-activated protein kinase 10 (Homo sapiens, UniProt P53779). Nature of the test: Inhibition of JNK3 Lys2 labeling site in human Huh-7 cells at 1 uM by KiNativ Profiling analysis relative to control. In kind it is cell-based.

Calls of active or inactive are those of the source. The rule behind the calls is not given here.

Sequence of Calcium/calmodulin-dependent protein kinase type II subunit gamma (Homo sapiens) (Q13555 whole entry): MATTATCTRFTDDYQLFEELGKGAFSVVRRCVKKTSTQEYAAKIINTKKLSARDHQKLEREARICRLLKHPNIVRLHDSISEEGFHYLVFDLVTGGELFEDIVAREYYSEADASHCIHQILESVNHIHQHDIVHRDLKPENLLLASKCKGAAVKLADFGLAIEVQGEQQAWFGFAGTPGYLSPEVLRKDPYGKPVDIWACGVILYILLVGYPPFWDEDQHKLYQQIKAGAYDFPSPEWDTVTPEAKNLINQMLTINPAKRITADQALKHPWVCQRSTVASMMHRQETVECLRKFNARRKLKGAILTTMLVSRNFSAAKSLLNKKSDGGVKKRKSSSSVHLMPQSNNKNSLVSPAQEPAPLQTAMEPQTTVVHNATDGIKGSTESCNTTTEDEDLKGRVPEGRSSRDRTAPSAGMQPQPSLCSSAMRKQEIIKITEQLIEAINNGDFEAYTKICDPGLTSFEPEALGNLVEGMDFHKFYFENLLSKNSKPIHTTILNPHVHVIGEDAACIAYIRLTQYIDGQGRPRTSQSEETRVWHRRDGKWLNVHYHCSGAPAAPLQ
Sequence of cGMP-dependent protein kinase 2 (Homo sapiens) (Q13237 whole entry): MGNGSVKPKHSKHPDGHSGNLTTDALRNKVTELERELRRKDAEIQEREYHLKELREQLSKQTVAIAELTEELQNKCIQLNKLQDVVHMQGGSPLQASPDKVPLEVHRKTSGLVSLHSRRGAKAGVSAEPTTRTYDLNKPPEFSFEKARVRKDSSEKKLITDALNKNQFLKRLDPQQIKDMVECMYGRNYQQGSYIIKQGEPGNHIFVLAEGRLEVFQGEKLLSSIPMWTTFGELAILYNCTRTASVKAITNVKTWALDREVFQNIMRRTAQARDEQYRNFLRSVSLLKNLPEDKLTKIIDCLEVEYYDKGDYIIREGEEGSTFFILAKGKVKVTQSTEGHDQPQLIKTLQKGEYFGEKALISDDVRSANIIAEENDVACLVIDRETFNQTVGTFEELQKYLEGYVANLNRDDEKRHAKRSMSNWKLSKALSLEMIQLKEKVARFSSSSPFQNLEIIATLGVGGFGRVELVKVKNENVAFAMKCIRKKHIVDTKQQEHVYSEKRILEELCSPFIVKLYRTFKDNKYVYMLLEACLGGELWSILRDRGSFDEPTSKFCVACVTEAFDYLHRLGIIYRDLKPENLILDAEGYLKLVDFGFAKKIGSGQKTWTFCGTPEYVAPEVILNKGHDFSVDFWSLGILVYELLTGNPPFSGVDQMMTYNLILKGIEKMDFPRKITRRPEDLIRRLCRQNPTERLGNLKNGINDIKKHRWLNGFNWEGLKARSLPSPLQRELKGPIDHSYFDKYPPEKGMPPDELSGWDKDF
Sequence of Serine/threonine-protein kinase 10 (Homo sapiens) (O94804 whole entry, looked up): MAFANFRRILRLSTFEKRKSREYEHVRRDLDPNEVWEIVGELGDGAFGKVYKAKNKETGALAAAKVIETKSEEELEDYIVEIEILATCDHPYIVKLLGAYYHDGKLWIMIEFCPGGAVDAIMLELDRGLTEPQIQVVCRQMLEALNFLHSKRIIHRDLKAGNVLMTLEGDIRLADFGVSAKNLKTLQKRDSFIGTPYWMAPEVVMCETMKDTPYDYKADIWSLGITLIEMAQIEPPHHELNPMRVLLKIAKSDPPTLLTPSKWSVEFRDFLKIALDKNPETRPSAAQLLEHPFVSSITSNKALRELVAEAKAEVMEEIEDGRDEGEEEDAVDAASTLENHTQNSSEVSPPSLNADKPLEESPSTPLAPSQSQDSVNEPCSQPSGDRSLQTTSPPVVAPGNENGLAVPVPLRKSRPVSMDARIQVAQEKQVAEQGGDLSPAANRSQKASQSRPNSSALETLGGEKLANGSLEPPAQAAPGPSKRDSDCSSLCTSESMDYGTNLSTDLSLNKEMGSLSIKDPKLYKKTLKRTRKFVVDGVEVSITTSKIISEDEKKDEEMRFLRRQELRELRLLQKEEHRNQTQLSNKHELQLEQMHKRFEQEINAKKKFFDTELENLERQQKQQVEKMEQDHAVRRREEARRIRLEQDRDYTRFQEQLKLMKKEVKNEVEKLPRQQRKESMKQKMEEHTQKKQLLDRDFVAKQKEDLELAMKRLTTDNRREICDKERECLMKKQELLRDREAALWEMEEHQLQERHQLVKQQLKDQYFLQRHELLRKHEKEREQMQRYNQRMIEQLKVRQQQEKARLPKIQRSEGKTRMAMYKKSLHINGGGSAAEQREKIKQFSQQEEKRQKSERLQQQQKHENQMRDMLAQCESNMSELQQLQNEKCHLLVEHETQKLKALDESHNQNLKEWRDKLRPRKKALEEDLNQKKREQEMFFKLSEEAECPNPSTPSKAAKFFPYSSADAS
Sequence of Non-receptor tyrosine-protein kinase TYK2 (Homo sapiens) (P29597 whole entry, the tested form may be a part): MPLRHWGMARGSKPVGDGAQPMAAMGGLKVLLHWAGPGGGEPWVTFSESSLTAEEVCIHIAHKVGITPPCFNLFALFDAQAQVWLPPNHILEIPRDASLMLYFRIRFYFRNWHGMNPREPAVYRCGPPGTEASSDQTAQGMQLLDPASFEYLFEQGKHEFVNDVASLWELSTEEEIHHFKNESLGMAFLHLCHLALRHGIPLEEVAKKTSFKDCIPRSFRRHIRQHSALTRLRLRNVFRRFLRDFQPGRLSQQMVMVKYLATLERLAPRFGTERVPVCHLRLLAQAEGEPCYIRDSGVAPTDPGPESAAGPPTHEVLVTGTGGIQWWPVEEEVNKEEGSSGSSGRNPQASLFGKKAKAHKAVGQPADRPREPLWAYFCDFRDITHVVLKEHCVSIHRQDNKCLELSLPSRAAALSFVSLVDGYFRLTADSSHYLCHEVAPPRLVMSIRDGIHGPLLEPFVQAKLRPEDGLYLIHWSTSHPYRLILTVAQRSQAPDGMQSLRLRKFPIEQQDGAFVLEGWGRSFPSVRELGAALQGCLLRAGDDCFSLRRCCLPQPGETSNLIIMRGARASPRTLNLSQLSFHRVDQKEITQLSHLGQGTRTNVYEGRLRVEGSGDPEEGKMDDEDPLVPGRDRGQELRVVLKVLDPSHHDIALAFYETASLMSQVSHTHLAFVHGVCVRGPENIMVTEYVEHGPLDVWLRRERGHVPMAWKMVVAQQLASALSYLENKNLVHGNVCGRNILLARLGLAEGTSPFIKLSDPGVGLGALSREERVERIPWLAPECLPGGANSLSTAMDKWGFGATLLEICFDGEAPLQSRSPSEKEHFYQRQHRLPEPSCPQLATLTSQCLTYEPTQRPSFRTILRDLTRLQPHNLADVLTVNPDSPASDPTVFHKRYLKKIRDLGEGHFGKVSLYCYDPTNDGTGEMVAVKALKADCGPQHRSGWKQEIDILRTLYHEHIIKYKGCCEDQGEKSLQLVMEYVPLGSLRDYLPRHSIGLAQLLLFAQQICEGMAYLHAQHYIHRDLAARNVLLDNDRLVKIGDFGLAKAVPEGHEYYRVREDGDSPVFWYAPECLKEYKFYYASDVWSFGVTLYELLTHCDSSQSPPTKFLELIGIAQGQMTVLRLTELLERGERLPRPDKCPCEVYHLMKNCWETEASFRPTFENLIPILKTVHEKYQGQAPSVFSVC
Sequence of Casein kinase II subunit alpha' (Homo sapiens) (P19784 whole entry, looked up): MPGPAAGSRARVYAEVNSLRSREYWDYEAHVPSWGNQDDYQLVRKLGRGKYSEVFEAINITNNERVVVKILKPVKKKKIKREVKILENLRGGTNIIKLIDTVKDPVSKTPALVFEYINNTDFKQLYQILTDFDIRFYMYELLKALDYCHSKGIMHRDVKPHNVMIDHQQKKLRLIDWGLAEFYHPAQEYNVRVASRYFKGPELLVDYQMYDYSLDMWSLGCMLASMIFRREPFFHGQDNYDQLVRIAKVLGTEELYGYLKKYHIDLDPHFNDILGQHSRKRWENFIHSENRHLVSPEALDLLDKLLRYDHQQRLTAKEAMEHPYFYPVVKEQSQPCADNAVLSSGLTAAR
Sequence of Mitogen-activated protein kinase kinase kinase kinase 3 (Homo sapiens) (Q8IVH8 whole entry): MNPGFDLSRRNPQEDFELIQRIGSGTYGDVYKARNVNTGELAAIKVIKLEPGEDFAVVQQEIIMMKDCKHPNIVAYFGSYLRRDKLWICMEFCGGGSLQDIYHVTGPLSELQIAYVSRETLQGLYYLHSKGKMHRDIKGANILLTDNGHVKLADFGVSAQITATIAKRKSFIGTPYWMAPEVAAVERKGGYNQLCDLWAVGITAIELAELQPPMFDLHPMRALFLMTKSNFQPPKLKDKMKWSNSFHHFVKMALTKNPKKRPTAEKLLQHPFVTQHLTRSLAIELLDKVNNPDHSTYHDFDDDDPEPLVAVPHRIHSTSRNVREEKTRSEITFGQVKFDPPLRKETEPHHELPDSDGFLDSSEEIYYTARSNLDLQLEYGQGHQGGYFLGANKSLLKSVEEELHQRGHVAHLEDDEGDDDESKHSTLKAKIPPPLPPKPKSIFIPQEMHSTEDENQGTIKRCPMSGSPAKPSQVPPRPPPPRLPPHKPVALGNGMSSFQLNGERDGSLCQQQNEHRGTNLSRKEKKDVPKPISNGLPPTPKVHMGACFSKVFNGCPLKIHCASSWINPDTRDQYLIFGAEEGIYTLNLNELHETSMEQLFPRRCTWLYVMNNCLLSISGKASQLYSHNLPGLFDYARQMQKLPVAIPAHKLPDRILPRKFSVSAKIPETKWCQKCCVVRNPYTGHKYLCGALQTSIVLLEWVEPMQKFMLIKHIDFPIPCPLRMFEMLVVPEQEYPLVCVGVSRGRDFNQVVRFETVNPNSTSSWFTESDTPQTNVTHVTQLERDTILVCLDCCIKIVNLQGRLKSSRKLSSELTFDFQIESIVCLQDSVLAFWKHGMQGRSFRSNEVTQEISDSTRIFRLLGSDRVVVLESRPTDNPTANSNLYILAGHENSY

Regarding `CCN1CCN(Cc2ccc(NC(=O)c3ccc(C)c(/C=C/c4cnc5[nH]ccc5c4OC)c3)cc2C(F)(F)F)CC1`, the residual activity in [1] amounted to 77%. Besides, the inhibition came to 20% in [2], 82% in [3] and 70% in [5]. In test [4], the percent of control was found to be 100%.
`CCN1CCN(Cc2ccc(NC(=O)c3ccc(C)c(Oc4ccnc5[nH]ccc45)c3)cc2C(F)(F)F)CC1`: the inhibition is 5.2% in test [6]; 48% in test [7]; 82.3% in test [8]; more than 99.5% in test [9]; 1.3% in test [10]; 13% in [12]. Further, in test [13], the inhibition was -7.1%. In test [11], this compound had a residual activity of 0.8%. The inhibition result in test [14] is “inactive”.
For `CNc1cc(Oc2cc(C(=O)Nc3cc(N4CCN(C)CC4)cc(C(F)(F)F)c3)ccc2C)ncn1`, the inhibition in test [15] was determined as 14.5%.
